2 compounds from patent US9714224B2, “Heterocyclic compounds and methods of their use” (Novartis AG, priority 2013, dated 2017) can be followed below.

The target of the experiment is AT2 receptor (Homo sapiens (Human), UniProt P50052). The experiment can be described thus: AT2 receptor binding assay ([125I]-CGP42112A displacement, HEK293/AT2 receptor cell membranes). The note with it: membranes of HEK293 cells transiently transfected with AT2 receptor; radioligand [125I]-CGP42112A; RT, 1.5 hrs. The protocol: Biological Example 1: AT2 Receptor Binding
• 1. Trypsin-EDTA (for preparation of 100 mL) • Trypsin 0.25 g • 2% EDTA 2 mL • PBS 98 mL • Dissolve trypsin in 2% EDTA and PBS completely; sterilize the solution by passing through a […] membrane filter; store at 4° C. • 2. DMEM medium (for preparation of IL) • The powder was dissolved into 950 mL of distilled water with gentle stirring until the solution becomes clear. • Add NaHCO3 1.176 g for DMEM medium. • Adjust pH of medium to 0.2-0.3 below final working pH using 1 M NaOH or 1 M HCl. Add slowly with stirring. • Dilute to 1 liter with ddH2O. • Sterilize the medium immediately by filtration. • Store at 4° C. • 3. TE buffer • 20 mM Tris-HCl, pH 7.4. • 5 mM EDTA • 4. Binding Assay Buffer • 50 mM HEPES, pH 7.4 • 5 mM MgCl2 • 1 mM CaCl2 • 0.2% BSA • 5. […] Cells were ready for transfection after overnight incubation (the confluence reaches around 80%). • 75 μL Lipofectamine™ 2000 diluted in 6.25 mL OptiMEM I Reduced Serum Medium, was mixed gently, and incubated at room temperature for 5 minutes, 50 μg expression plasmid DNA diluted in 6.25 mL OptiMEM I Reduced Serum Medium without serum was mixed gently. • After the 5 minute incubation, the diluted DNA was combined with the diluted Lipofectamine™ 2000 (total volume is 12.5 mL). […]

Sequence of AT2 receptor (P50052 whole entry, species assumed): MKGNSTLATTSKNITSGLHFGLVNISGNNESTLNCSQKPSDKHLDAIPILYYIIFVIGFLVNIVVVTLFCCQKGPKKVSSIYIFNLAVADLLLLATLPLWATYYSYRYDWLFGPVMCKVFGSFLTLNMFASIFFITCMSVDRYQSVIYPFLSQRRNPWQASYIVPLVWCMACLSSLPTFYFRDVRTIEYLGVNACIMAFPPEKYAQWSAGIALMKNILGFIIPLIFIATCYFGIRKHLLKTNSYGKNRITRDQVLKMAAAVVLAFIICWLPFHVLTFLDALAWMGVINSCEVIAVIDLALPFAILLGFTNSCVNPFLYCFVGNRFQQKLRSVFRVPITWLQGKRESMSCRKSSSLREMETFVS

The IC50 is the concentration that inhibits the measured activity by half. Read a low IC50 as inhibition by little substance. Turning to `COc1ccc2c(c1OCc1ccccc1)CC(C(=O)O[C@@H]1O[C@H](C(=O)O)[C@@H](O)[C@H](O)[C@H]1O)N(C(=O)C(c1ccccc1)c1ccccc1)C2` (some centres unmarked) [Compound 33], the IC50 worked out at 431 nM.
The compound `COc1ccc2c(c1O)C[C@@H](C(=O)NS(=O)(=O)N(C)C)N(C(=O)C(c1ccccc1)c1ccccc1)C2` [Compound 41] registered an IC50 of 1790 nM.
